Measured values published in patent publication US4731451A, “N-((2-oxo-3(2H)benzothiazolyl)methyl)-2-chloroacetanilides” (Monsanto Company, priority 1980, dated 1988).

What was measured:
Format in all cases: in vivo
Morningglory [1] = experiment: Pre-emergent herbicidal activity (Table III)
Method: (§1) The pre-emergence tests are conducted as follows:
(§2) A good grade of top soil is placed in aluminum pans and compacted to a depth of three-eighths to one-half inch from the top of the pan. On the top of the soil is placed a predetermined number of seeds or vegetative propagules of various plant species. The soil required to level fill the pans after seeding or adding vegetative propagules is weighed into a pan. A known amount of the active ingredient applied in a solvent or as a wettable powder suspension and the soil are thoroughly mixed, and used as a cover layer for prepared pans. After treatment, the pans are moved into a greenhouse bench where they are watered from below as needed to give adequate moisture for germination and growth.
(§3) Approximately 2-3 weeks after seeding and treating, the plants are observed and the results recorded. The herbicidal rating is obtained by means of fixed scale based on the percent injury of each plant species. The ratings are defined as follows: […]
(§4) The compounds were further tested by utilizing the above procedure on the following plant species: […]

Barnyardgrass [2] = experiment: Pre-emergent herbicidal activity (Table III)
Method: as §1, §2, §3, §4

Smartweed [3] = experiment: Pre-emergent herbicidal activity (Table III)
Method: as §1, §2, §3, §4

Lambsquarters [4] = experiment: Pre-emergent herbicidal activity (Table III)
Method: as §1, §2, §3, §4

Sugarbeet = experiment: Pre-emergent herbicidal activity (Table III)
Method: as §1, §2, §3, §4

Cocklebur [5] = experiment: Pre-emergent herbicidal activity (Table III)
Method: as §1, §2, §3, §4

Crabgrass = experiment: Pre-emergent herbicidal activity (Table III)
Method: as §1, §2, §3, §4

Sorghum = experiment: Pre-emergent herbicidal activity (Table III)
Method: as §1, §2, §3, §4

Hemp Sesbania = experiment: Pre-emergent herbicidal activity (Table III)
Method: as §1, §2, §3, §4

Rice = experiment: Pre-emergent herbicidal activity (Table III)
Method: as §1, §2, §3, §4

Downy Brome [6] = experiment: Pre-emergent herbicidal activity (Table III)
Method: as §1, §2, §3, §4

Wild Buckwheat = experiment: Pre-emergent herbicidal activity (Table III)
Method: as §1, §2, §3, §4

Panicum = experiment: Pre-emergent herbicidal activity (Table III)
Method: as §1, §2, §3, §4

Velvetleaf [7] = experiment: Pre-emergent herbicidal activity (Table III)
Method: as §1, §2, §3, §4

Soybean = experiment: Pre-emergent herbicidal activity (Table III)
Method: as §1, §2, §3, §4

Wheat = experiment: Pre-emergent herbicidal activity (Table III)
Method: as §1, §2, §3, §4

Johnsongrass = experiment: Pre-emergent herbicidal activity (Table II); details: 2-3 weeks
Summary of the method: (§5)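 Percent injury, converted to a fixed-scale rating, is recorded roughly 2-3 weeks after seeding and treatment. The active ingredient is blended into the cover-layer soil laid over seeded pans, which then sit in a greenhouse with bottom watering as needed.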

Morningglory [8] = experiment: Pre-emergent herbicidal activity (Table II); details: 2-3 weeks
Summary of the method: as §5

Barnyardgrass [9] = experiment: Pre-emergent herbicidal activity (Table II); details: 2-3 weeks
Summary of the method: as §5

Smartweed [10] = experiment: Pre-emergent herbicidal activity (Table II); details: 2-3 weeks
Summary of the method: as §5

Lambsquarters [11] = experiment: Pre-emergent herbicidal activity (Table II); details: 2-3 weeks
Summary of the method: as §5

Cocklebur [12] = experiment: Pre-emergent herbicidal activity (Table II); details: 2-3 weeks
Summary of the method: as §5

Downy Brome [13] = experiment: Pre-emergent herbicidal activity (Table II); details: 2-3 weeks
Summary of the method: as §5

Canada Thistle = experiment: Pre-emergent herbicidal activity (Table II); details: 2-3 weeks
Summary of the method: as §5

Quackgrass = experiment: Pre-emergent herbicidal activity (Table II); details: 2-3 weeks
Summary of the method: as §5

Velvetleaf [14] = experiment: Pre-emergent herbicidal activity (Table II); details: 2-3 weeks
Summary of the method: as §5

Yellow Nutsedge = experiment: Pre-emergent herbicidal activity (Table II); details: 2-3 weeks
Summary of the method: as §5
Further: ranges in brackets are in %.

CC1=C(N(Cn2c(=O)sc3ccccc32)C(=O)CCl)CCCC1 [Example 10, N--[(2-oxo-3(2H)--benzothiazolyl)methyl]-N--(2-methyl-1-cyclohexen-1-yl)-2-chloro-amide]
Herbicidal rating (Morningglory [1]; 0.056 kg/ha): 0 (0-24)
Herbicidal rating (Morningglory [1]; 0.28 kg/ha): 0 (0-24)
Herbicidal rating (Morningglory [1]; 1.12 kg/ha): 0 (0-24)
Herbicidal rating (Morningglory [1]; 5.6 kg/ha): 0 (0-24)
Herbicidal rating (Barnyardgrass [2]; 0.056 kg/ha): 3 (75-100)
Herbicidal rating (Barnyardgrass [2]; 0.28 kg/ha): 3 (75-100)
Herbicidal rating (Barnyardgrass [2]; 1.12 kg/ha): 2 (50-74)
Herbicidal rating (Barnyardgrass [2]; 5.6 kg/ha): 3 (75-100)
Herbicidal rating (Smartweed [3]; 0.056 kg/ha): 0 (0-24)
Herbicidal rating (Smartweed [3]; 0.28 kg/ha): 0 (0-24)
Herbicidal rating (Smartweed [3]; 1.12 kg/ha): 1 (25-49)
Herbicidal rating (Smartweed [3]; 5.6 kg/ha): 2 (50-74)
Herbicidal rating (Lambsquarters [4]; 0.056 kg/ha): 1 (25-49)
Herbicidal rating (Lambsquarters [4]; 0.28 kg/ha): 0 (0-24)
Herbicidal rating (Lambsquarters [4]; 1.12 kg/ha): 1 (25-49)
Herbicidal rating (Lambsquarters [4]; 5.6 kg/ha): 3 (75-100)
Herbicidal rating (Sugarbeet; 0.056 kg/ha): 0 (0-24)
Herbicidal rating (Sugarbeet; 0.28 kg/ha): 0 (0-24)
Herbicidal rating (Sugarbeet; 1.12 kg/ha): 0 (0-24)
Herbicidal rating (Sugarbeet; 5.6 kg/ha): 0 (0-24)
Herbicidal rating (Cocklebur [5]; 0.056 kg/ha): 0 (0-24)
Herbicidal rating (Cocklebur [5]; 0.28 kg/ha): 0 (0-24)
Herbicidal rating (Cocklebur [5]; 1.12 kg/ha): 0 (0-24)
Herbicidal rating (Cocklebur [5]; 5.6 kg/ha): 0 (0-24)
Herbicidal rating (Crabgrass; 0.056 kg/ha): 3 (75-100)
Herbicidal rating (Crabgrass; 0.28 kg/ha): 3 (75-100)
Herbicidal rating (Crabgrass; 1.12 kg/ha): 3 (75-100)
Herbicidal rating (Crabgrass; 5.6 kg/ha): 3 (75-100)
Herbicidal rating (Sorghum; 0.056 kg/ha): 0 (0-24)
Herbicidal rating (Sorghum; 0.28 kg/ha): 0 (0-24)
Herbicidal rating (Sorghum; 1.12 kg/ha): 0 (0-24)
Herbicidal rating (Sorghum; 5.6 kg/ha): 0 (0-24)
Herbicidal rating (Hemp Sesbania; 0.056 kg/ha): 0 (0-24)
Herbicidal rating (Hemp Sesbania; 0.28 kg/ha): 0 (0-24)
Herbicidal rating (Hemp Sesbania; 1.12 kg/ha): 0 (0-24)
Herbicidal rating (Hemp Sesbania; 5.6 kg/ha): 0 (0-24)
Herbicidal rating (Rice; 0.056 kg/ha): 0 (0-24)
Herbicidal rating (Rice; 0.28 kg/ha): 0 (0-24)
Herbicidal rating (Rice; 1.12 kg/ha): 0 (0-24)
Herbicidal rating (Rice; 5.6 kg/ha): 3 (75-100)
Herbicidal rating (Downy Brome [6]; 0.056 kg/ha): 0 (0-24)
Herbicidal rating (Downy Brome [6]; 0.28 kg/ha): 0 (0-24)
Herbicidal rating (Downy Brome [6]; 1.12 kg/ha): 0 (0-24)
Herbicidal rating (Downy Brome [6]; 5.6 kg/ha): 2 (50-74)
Herbicidal rating (Wild Buckwheat; 0.056 kg/ha): 0 (0-24)
Herbicidal rating (Wild Buckwheat; 0.28 kg/ha): 0 (0-24)
Herbicidal rating (Wild Buckwheat; 1.12 kg/ha): 0 (0-24)
Herbicidal rating (Wild Buckwheat; 5.6 kg/ha): 0 (0-24)
Herbicidal rating (Panicum; 0.056 kg/ha): 0 (0-24)
Herbicidal rating (Panicum; 0.28 kg/ha): 0 (0-24)
Herbicidal rating (Panicum; 1.12 kg/ha): 0 (0-24)
Herbicidal rating (Panicum; 5.6 kg/ha): 2 (50-74)
Herbicidal rating (Velvetleaf [7]; 0.056 kg/ha): 0 (0-24)
Herbicidal rating (Velvetleaf [7]; 0.28 kg/ha): 0 (0-24)
Herbicidal rating (Velvetleaf [7]; 1.12 kg/ha): 0 (0-24)
Herbicidal rating (Velvetleaf [7]; 5.6 kg/ha): 0 (0-24)
Herbicidal rating (Soybean; 0.056 kg/ha): 0 (0-24)
Herbicidal rating (Soybean; 0.28 kg/ha): 0 (0-24)
Herbicidal rating (Soybean; 1.12 kg/ha): 0 (0-24)
Herbicidal rating (Soybean; 5.6 kg/ha): 0 (0-24)
Herbicidal rating (Wheat; 0.056 kg/ha): 0 (0-24)
Herbicidal rating (Wheat; 0.28 kg/ha): 0 (0-24)
Herbicidal rating (Wheat; 1.12 kg/ha): 0 (0-24)
Herbicidal rating (Wheat; 5.6 kg/ha): 1 (25-49)
Herbicidal rating (Johnsongrass; 5.6 kg/ha): 0 (0-24)
Herbicidal rating (Johnsongrass; 11.2 kg/ha): 0 (0-24)
Herbicidal rating (Morningglory [8]; 5.6 kg/ha): 3 (75-100)
Herbicidal rating (Morningglory [8]; 11.2 kg/ha): 1 (25-49)
Herbicidal rating (Barnyardgrass [9]; 5.6 kg/ha): 3 (75-100)
Herbicidal rating (Barnyardgrass [9]; 11.2 kg/ha): 3 (75-100)
Herbicidal rating (Smartweed [10]; 5.6 kg/ha): 0 (0-24)
Herbicidal rating (Smartweed [10]; 11.2 kg/ha): 0 (0-24)
Herbicidal rating (Lambsquarters [11]; 5.6 kg/ha): 0 (0-24)
Herbicidal rating (Lambsquarters [11]; 11.2 kg/ha): 0 (0-24)
Herbicidal rating (Cocklebur [12]; 5.6 kg/ha): 0 (0-24)
Herbicidal rating (Cocklebur [12]; 11.2 kg/ha): 0 (0-24)
Herbicidal rating (Downy Brome [13]; 5.6 kg/ha): 3 (75-100)
Herbicidal rating (Downy Brome [13]; 11.2 kg/ha): 3 (75-100)
Herbicidal rating (Canada Thistle; 5.6 kg/ha): 0 (0-24)
Herbicidal rating (Canada Thistle; 11.2 kg/ha): 0 (0-24)
Herbicidal rating (Quackgrass; 5.6 kg/ha): 3 (75-100)
Herbicidal rating (Quackgrass; 11.2 kg/ha): 0 (0-24)
Herbicidal rating (Velvetleaf [14]; 5.6 kg/ha): 0 (0-24)
Herbicidal rating (Velvetleaf [14]; 11.2 kg/ha): 0 (0-24)
Herbicidal rating (Yellow Nutsedge; 5.6 kg/ha): 1 (25-49)
Herbicidal rating (Yellow Nutsedge; 11.2 kg/ha): 1 (25-49)
